Assay results: patent US8227616B2, “Cyanopyridine antibacterial agents and methods of use thereof” (Wisconsin Alumni Research Foundation, priority 2006, dated 2012)
In brackets after ≈: the same amount, converted by molar mass.

Assays:
[1] = test system: K. pneumoniae ATCC 4352; assay: MIC determination, species selectivity; assay type: cell-based; conditions: Klebsiella pneumoniae, ATCC4352; authentic sample, only trans isomers of chalcones; error reflects step size
Description: (§1) Each compound from Table 3 was tested for inhibitory activity at 2.5, 5, 7.5, 10, 15, 20, 25, and 30 μM in the susceptible overlaid strains: B. subtilis ATCC 6633, S. epidermidis ATCC 12228, and K. pneumoniae ATCC 4352. MIC assays were run in quadruplicate as described above (with shaking).

[2] = test system: S. epidermidis ATCC 12228; assay: MIC determination, species selectivity; assay type: cell-based; conditions: Staphylococcus epidermidis, ATCC12228; authentic sample, only trans isomers of chalcones; error reflects step size
Description: as §1

[3] = test system: B. subtilis subsp. spizizenii ATCC 6633; assay: MIC determination, species selectivity; assay type: cell-based; conditions: Bacillus subtilis, ATCC6633; authentic sample, only trans isomers of chalcones; error reflects step size
Description: as §1

[4] = test system: K. pneumoniae; assay: Agar overlay TTC assay, compound overlays; assay type: cell-based, Klebsiella pneumoniae; conditions: 30 nanomole aliquots of purified compound on filter paper
[5] = test system: S. aureus ATCC 10390; assay: MIC determination with authentic compounds resynthesized in solution; assay type: cell-based, Staphylococcus aureus; conditions: Staphylococcus aureus, ATCC10390
Description: (§2) For estimated MIC determination, DMSO was added to the dried compound residue obtained from a single spot to afford ca. 100 μL of a 2 mM stock solution. Aliquots (5 μL) of these solutions were added to a 96-well plate, followed by 195 μL of diluted S. aureus 10390 (10^6 CFUs/mL) to yield ca. 50 μM final concentrations. The plates were swirled for 1 h to ensure compound dissolution, incubated for 12 h at 37° C., and the absorbance at 595 nm was recorded using a plate reader. […] Actual MIC values were determined for lead compounds resynthesized in solution using an analogous procedure with solutions of known concentration (see).
(§3) Dose response growth inhibition curves were determined for each active compound (resynthesized in solution) against S. aureus 10390 (SA) and methicillin-resistant S. aureus 33591 (MRSA). […] MIC assays were performed in quadruplicate.

[6] = test system: Methicillin-resistant S. aureus ATCC 33591 (MRSA); assay: as above; assay type: cell-based; conditions: Staphylococcus aureus; Table 3; authentic sample, only trans isomers of chalcones; error reflects step size in the serial dilutions
Description: as §2, §3

[7] = test system: S. aureus ATCC 10390; assay: Estimated MIC, solution-phase microdilution absorbance assay with crude macroarray spot stock solutions; assay type: cell-based, Staphylococcus aureus; conditions: Staphylococcus aureus, ATCC10390, 12 h
Description: Spots from a new 69 member chalcone macroarray as well as the three heterocyclic macroarrays prepared earlier were punched out, cleaved, and eluted with acetonitrile. The resulting solutions were concentrated to a residue that was taken up in DMSO to form 2 mM stock solutions.
From the stock solutions, microdilution assays in a 96 well plate starting at 50 μM were performed in quadruplicate. Each well contained 5 μL of the stock solution as well as 195 μL of a S. aureus culture. The turbidity of each well was measured after incubating 12 hours using a standard plate reader. Active compounds can be further diluted and the assay repeated.
To acquire more quantitative antibacterial activity data about our compounds and verify our on-support assay results, we performed solution-phase absorbance assays that provided estimates of the minimum inhibitory concentration (MIC) of each macroarray member against S. aureus. Stock solutions (ca. 2 mM) were generated by cleaving and eluting 198 individual compounds from chalcone (3) and heterocyclic macroarrays (5, 7, and 8). […] The good overall purities of the crude macroarray compounds allowed for reasonable estimations of MICs.
as §2
Preparation of spot samples and controls. An aliquot of DMSO (ca. 100 μL depending on the loading of the parent hydroxyacetophenone) was added to the dried compound residue obtained after TFA cleavage and elution from a single spot. This afforded a 2.0 mM “spot stock” solution for each spot. A small aliquot of each “spot stock” solution was saved for subsequent LC-MS analysis.
For estimated MIC screens, 5.0 μL portions of the “spot stock” solutions were added to the appropriate wells in a sterile, polystyrene 96-well plate to yield ca. 50 μM solutions (dependent on the initial loading of hydroxyacetopheneone and compound purity). To the positive and negative control wells, 5.0 μL of DMSO were added (positive controls contained bacteria but no compound, while negative controls had neither compound nor bacteria). All estimated MIC assays were performed in quadruplicate. Note: the MIC value is defined as the lowest concentration where no bacterial growth occurs.
Representative estimated MIC assay procedure. This assay procedure is based in part on the method reported by Strøm et al.^xiii A 400 μL portion of overnight S. aureus 10390 culture was diluted with 100 mL of sterile LB broth to give ca. 10^6 CFUs per mL. Aliquots (195 μL) of this solution were added to all of the wells in a sterile 96-well plate (except for the negative control wells; 195 μL of sterile LB broth were added to these wells). The plates were placed on an orbital shaker table and gently swirled for 1 h to ensure compound dissolution, and then incubated (without shaking) for 12 h at 37° C. The absorbance at 595 nm was recorded using a plate reader.
The original “spot stock” solutions of these compounds were diluted with DMSO to give ca. 25 and 13 μM final concentrations and tested for inhibitory activities using the procedure described above.

[8] = test system: S. aureus ATCC 10390; assay: Agar overlay TTC assay; assay type: cell-based, Staphylococcus aureus; conditions: methicillin susceptibility disk 10 μg, agar overlay TTC assay, 18 h
Description: To take advantage of the spatially-addressed nature of the macroarray format, an agar overlay assay was employed that utilizes TTC (triphenyl tetrazolium chloride) as a visualization agent (FIG. 2[…].; Lu, A. T.; Solas, D. W.; Gore, […].; Coffin, […].; Wang, […].; Look, G. C.; Campbell, […]. Antimicrob. Agents Chemother. 1998, 1447-1453. Unfortunately, during macroarray synthesis the planarity of the support is not fully maintained, and small wrinkles develop in this particular assay. This problem was solved by using an adaptation of the common Western Blot technique to copy the macroarray members from the support to fresh wrinkle-free sheets while maintaining the spatially-addressed nature. This transfer can be completed in 90 seconds and four copies can be made at a time, however to date, it is applicable only for smaller macroarrays (6 cm×6 cm, 16 spots). The full macroarray was easily divided into these dimensions. The copies allowed for replicates to be made, and the original, which cannot be used in the assay, is used to validate the compounds by LCMS. As an added feature, the sensitivity of the assay was tuned by simply changing the amount of agar applied to the array. The copies generated in the assay can also be easily used to screened against multiple organisms. […] This assay format also took advantage of the spatially addressed nature of the arrays (FIG. 2C). […]

[9] = test system: S. aureus ATCC 10390; assay: Kirby-Bauer disk diffusion assay on compound spots from cleaved macroarray; assay type: cell-based, Staphylococcus aureus; conditions: loadings 30 μg/spot, 18 h incubation
Description: While the heterocyclic libraries were being synthesized, the chalcone macroarrays were analyzed using various direct assay techniques such as the Kirby-Bauer disk diffusion assay (FIG. 2E). Bauer, A. W.; Kirby, […].; Turck, M. Technical Bulletin of the Registry of Medical Technologists 1966, 36, 49-52. For this assay, the macroarray members are punched out from the membrane, cleaved from the support with TFA vapor, neutralized with ammonia vapor, and then placed on an agar bed inoculated with S. aureus. After incubating overnight, different diameters of zones of inhibition are measured as a factor of potency as well as solubility in the medium. Ammonia vapor neutralization was key in the disk diffusion assay, otherwise residual TFA vapor created a false positive signature. However, in this method, macroarrays have to be made in triplicate one for a replicate and one for compound characterization. We first evaluated test chalcone macroarrays (3) in antibacterial assays against S. aureus. Because the macroarrays were prepared on cellulose filter paper, we had convenient access to the compounds in disk form for standard disk diffusion assays. Compound spots were punched out of the macroarrays, subjected to vapor phase cleavage with acid (TFA), and neutralized (NH3) to afford disks containing ca. 30 μg of adsorbed compound [8]. These disks were manually placed on lawns of S. aureus, and zones of inhibition were measured after an 18 h incubation period. […] However, this antibacterial assay format had drawbacks: (1) the entire sample of compound was consumed during the assay, and thus replicate arrays needed to be synthesized to confirm activity, and (2) manipulating large numbers of compound disks was relatively labor intensive. Compound spots were cleaved with TFA and neutralized with NH3 as described herein. […] Compound spots were placed onto the agar, the plate was incubated at 37° C. for 18 h, and the diameters of the zones of inhibition were measured. […] Compound spots were subjected to the TFA cleavage conditions described above. The spots were next subjected to NH3 vapor to neutralize any remaining TFA. […] Vials containing the spots (or intact macroarrays) were placed inside a small evaporating dish, and this was placed into the NH4OH solution. The Pyrex dish was covered, and NH3 vapor was allowed to slowly diffuse into the vials. After 1 h, the vials were removed from the NH3 chamber, and the spots were allowed to stand open in a fume hood for at least 15 min to vent prior to analysis in the following assays. This afforded dry, paper disks containing adsorbed compound. […] The plates were removed, and the diameters of the zones of inhibition were measured in mm using a ruler (see FIG. 1A).

[10] = Table 2, authentic sample synthesized according to standard techniques, read-out: observed MIC
[11] = Table 3, authentic sample, only trans isomers of chalcones, error reflects step size in the serial dilutions, read-out: S. aureus MIC
[12] = Table 2, serial dilution of stock solutions obtained by SPOT-synthesis, read-out: estimated MIC range
[13] = Table 3, serial dilution of spot stock solutions of crude macroarray compounds, read-out: S. aureus Estimated MIC range

Structure (SMILES)	MIC [1] [µM]	MIC [2] [µM]	MIC [3] [µM]	susceptibility in agar overlay TTC assay [4]	MIC [5, 10] [µM]	MIC [5, 11] [µM]	MIC [6] [µM]	MIC [7, 12] [µM]	MIC [7, 13] [µM]	Zone of inhibition [8] [mm]	Zones of inhibition [9] [mm]
O=C(/C=C/c1cccc(Br)c1)c1cccc(O)c1 [Compound 4Be, 3-bromo-3′-hydroxychalcone]	40 ± 10 (≈ 12.1 µg/mL)	22.5 ± 2.5 (≈ 6.82 µg/mL)	22.5 ± 2.5 (≈ 6.82 µg/mL)	weakly susceptible	24 ± 2 (≈ 7.28 µg/mL)	21 ± 1 (≈ 6.37 µg/mL)	20 ± 1 (≈ 6.06 µg/mL)	25 to 50 (≈ 7.58 to 15.2 µg/mL)	25 to 50 (≈ 7.58 to 15.2 µg/mL)		
COc1cccc(OC)c1C(=O)N[C@@H]1C(=O)N2[C@@H]1SC(C)(C)[C@@H]2C(=O)O [methicillin, reference compound]										39	
O=C(/C=C/c1cccc(Cl)c1Cl)c1cccc(O)c1 [Compound 4Bl, 2,3-dichloro-3′-hydroxychalcone]	> 250	12.5 ± 2.5 (≈ 3.66 µg/mL)	22.5 ± 2.5 (≈ 6.6 µg/mL)	weakly susceptible	13.8 ± 1.2 (≈ 4.05 µg/mL)	15 ± 0.5 (≈ 4.4 µg/mL)	15 ± 0.5 (≈ 4.4 µg/mL)	12.5 to 25 (≈ 3.66 to 7.33 µg/mL)	12.5 to 25 (≈ 3.66 to 7.33 µg/mL)		19
